Measured values reported in US12696900B2, “Crop enhancement” (SYNGENTA CROP PROTECTION AG, priority 2020, dated 2026).

Legend:
[1] = tested on: Wheat seeds (winter wheat variety Syllon); assay: Wheat germination test under increased salinity (salt stress); type: in vivo; details: for Time taken to reach 50% germination of wheat, Sign. / Time taken to reach 50% germination of wheat, Relative T50: increased salinity, 12.5 mM NaCl solution, 23° C.; for Time taken to reach 50% germination of wheat, Sign.: significance vs untreated, p<0.05; for Time taken to reach 50% germination of wheat, Relative T50: untreated = 100
Description: Wheat seeds (winter wheat variety Syllon, Syngenta Seeds) were placed in 24 well plates (1 seed per well, each plate was considered as one experimental unit or replicate). […] Subsequently, a salt solution was prepared at this concentration and spiked with the test compound at different rates as shown below in Table 3, and the germination test was repeated under salt stress. Eight replicates (i.e. 8 plates) were used for each treatment. Plates were sealed with seal foil (Polyolefin Art. Nr. 900320) from HJ-BIOANALYTIK. All plates were placed in a climatic chamber at 23° C. with 70% Relative Humidity. The experiment was laid out in a completely randomized design. Germination was followed over time by taking photographs at different time points. Image analysis was performed automatically with a macro which was developed using the Image J software. A kinetic analysis of germination was carried out by fitting a trend curve. Three parameters were calculated from the trend curve: the T50 (time taken for 50% germination; speed of germination); the slope of the curve (the uniformity of germination) and the plateau (the total percentage of germinated seeds). […] The results are expressed in terms of percentage in comparison to the check (untreated seeds) and the results are analysed statistically to highlight significant differences (p<0.05). (Key: Sign.=significance)
T50 corresponds to the time needed for half of the seed population to germinate and is a germination parameter of high agronomical relevance. Significant differences between treated seeds and untreated control are given at p<0.05 (Anova). Lower values indicate faster germination.

[2] = tested on: Corn seeds (var. NK Falkone); assay: Corn germination test (24 well plates, kinetic analysis of germination); type: in vivo; details: for Plateau of Germination (total percentage of germinated seeds), Sign. / Time taken to reach 50% germination of corn, Sign. / Uniformity of Germination (slope of the curve), Sign.: significance vs untreated, p<0.05, ns=not significant; for Plateau of Germination (total percentage of germinated seeds), total % of germinated seeds / Time taken to reach 50% germination of corn, Relative T50 / Uniformity of Germination (slope of the curve), Relative slope: untreated = 100
Description: Corn seeds (var. NK Falkone, Syngenta Seeds SAS, St. Sauveur, France) were sorted by size using a sieve to eliminate round seeds. The corn seeds were placed in 24 well plates (1 seed per well; each plate was considered as one experimental unit or replicate). Germination was initiated by the addition of 250 μl of distilled water containing 0.5% dimethyl sulfoxide (DMSO) to each well (with isocycloseram present at a concentration of either 1, 5, 25 or 125 μM). 8 replicates (i.e. 8 plates) were used for each treatment characterisation. The plates were sealed using seal foil (Polyolefin Art. Nr. 900320) from HJ-BIOANALYTIK. All plates were placed in a climatic chamber at either 15° C. or 23° C., with 60% Relative Humidity. The experiment was laid out in a completely randomized design. Germination was followed over time by taking photographs at different time points. Image analysis was performed automatically with a macro which was developed using the Image J software. A kinetic analysis of germination was carried out by fitting a trend curve. Three parameters were calculated from the trend curve: the T50 (time taken for 50% germination; related to speed of germination); the slope of the curve (the uniformity of germination) and the plateau (the total percentage of germinated seeds). […] The results are expressed in terms of percentage in comparison to the control (untreated seeds) for each temperature group respectively. The results were analysed statistically to highlight significant differences (p<0.05). (Key: Sign.=significance; ns=not significant)
All three parameters have a high agronomical relevance. Significant differences between treated seeds and untreated control are given at p<0.05 (Anova). T50 corresponds to the time needed for half of the seed population to germinate; lower values indicate faster germination. Slope indicates how synchronous the germination of the seed population is; values greater than 100 indicate a steeper curve. The steeper the curve, the better and more uniform the germination is. […] At the two highest rates, the speed of germination (T50) was faster at both temperatures, indicating a positive impact on germination speed.

[3] = 15° C. (cold conditions), isocycloseram 1 μM
[4] = 15° C. (cold conditions), isocycloseram 5 μM
[5] = 15° C. (cold conditions), isocycloseram 25 μM
[6] = 15° C. (cold conditions), isocycloseram 125 μM
[7] = 23° C. (normal conditions), isocycloseram 1 μM
[8] = 23° C. (normal conditions), isocycloseram 5 μM
[9] = 23° C. (normal conditions), isocycloseram 25 μM
[10] = 23° C. (normal conditions), isocycloseram 125 μM

What does the source list for `CCN1OCC(NC(=O)c2ccc(C3=NOC(c4cc(Cl)c(F)c(Cl)c4)(C(F)(F)F)C3)cc2C)C1=O` (stereo not shown) [Isocycloseram, isocycloseram]?
effect on wheat seed germination kinetics ([1]; increased salinity (salt stress)): consistent effect; Time taken to reach 50% germination of wheat, Sign. ([1]; isocycloseram 1 μM): Faster; Time taken to reach 50% germination of wheat, Relative T50 ([1]; isocycloseram 1 μM): 95.27 percentage in comparison to the check; Time taken to reach 50% germination of wheat, Sign. ([1]; isocycloseram 5 μM): Faster; Time taken to reach 50% germination of wheat, Relative T50 ([1]; isocycloseram 5 μM): 94.70 percentage in comparison to the check; Time taken to reach 50% germination of wheat, Sign. ([1]; isocycloseram 25 μM): Faster; Time taken to reach 50% germination of wheat, Relative T50 ([1]; isocycloseram 25 μM): 93.07 percentage in comparison to the check; changes in germination speed (wheat) ([1]; isocycloseram 1, 5, and 25 μM, salt stress, 12.5 mM NaCl): significant changes in germination speed; Plateau of Germination (total percentage of germinated seeds), Sign. [2, 3]: ns; Time taken to reach 50% germination of corn, Sign. [2, 3]: ns; Uniformity of Germination (slope of the curve), Sign. [2, 3]: ns; Plateau of Germination (total percentage of germinated seeds), total % of germinated seeds [2, 3]: 103 percentage in comparison to the control; Time taken to reach 50% germination of corn, Relative T50 [2, 3]: 99.67 percentage in comparison to the control; Uniformity of Germination (slope of the curve), Relative slope [2, 3]: 100 percentage in comparison to the control; Plateau of Germination (total percentage of germinated seeds), Sign. [2, 4]: higher; Time taken to reach 50% germination of corn, Sign. [2, 4]: ns; Uniformity of Germination (slope of the curve), Sign. [2, 4]: ns; Plateau of Germination (total percentage of germinated seeds), total % of germinated seeds [2, 4]: 105 percentage in comparison to the control; Time taken to reach 50% germination of corn, Relative T50 [2, 4]: 101.73 percentage in comparison to the control; Uniformity of Germination (slope of the curve), Relative slope [2, 4]: 98 percentage in comparison to the control; Plateau of Germination (total percentage of germinated seeds), Sign. [2, 5]: higher; Time taken to reach 50% germination of corn, Sign. [2, 5]: Faster; Uniformity of Germination (slope of the curve), Sign. [2, 5]: more; Plateau of Germination (total percentage of germinated seeds), total % of germinated seeds [2, 5]: 106 percentage in comparison to the control; Time taken to reach 50% germination of corn, Relative T50 [2, 5]: 93.1 percentage in comparison to the control; Uniformity of Germination (slope of the curve), Relative slope [2, 5]: 233 percentage in comparison to the control; Plateau of Germination (total percentage of germinated seeds), Sign. [2, 6]: higher; Time taken to reach 50% germination of corn, Sign. [2, 6]: Faster; Uniformity of Germination (slope of the curve), Sign. [2, 6]: more; Plateau of Germination (total percentage of germinated seeds), total % of germinated seeds [2, 6]: 105 percentage in comparison to the control; Time taken to reach 50% germination of corn, Relative T50 [2, 6]: 90.61 percentage in comparison to the control; Uniformity of Germination (slope of the curve), Relative slope [2, 6]: 191 percentage in comparison to the control; Plateau of Germination (total percentage of germinated seeds), Sign. [2, 7]: ns; Time taken to reach 50% germination of corn, Sign. [2, 7]: Slower; Uniformity of Germination (slope of the curve), Sign. [2, 7]: less; Plateau of Germination (total percentage of germinated seeds), total % of germinated seeds [2, 7]: 103.63 percentage in comparison to the control; Time taken to reach 50% germination of corn, Relative T50 [2, 7]: 107.32 percentage in comparison to the control; Uniformity of Germination (slope of the curve), Relative slope [2, 7]: 80.22 percentage in comparison to the control; Plateau of Germination (total percentage of germinated seeds), Sign. [2, 8]: ns; Time taken to reach 50% germination of corn, Sign. [2, 8]: Slower; Uniformity of Germination (slope of the curve), Sign. [2, 8]: ns; Plateau of Germination (total percentage of germinated seeds), total % of germinated seeds [2, 8]: 103.63 percentage in comparison to the control; Time taken to reach 50% germination of corn, Relative T50 [2, 8]: 105.17 percentage in comparison to the control; Uniformity of Germination (slope of the curve), Relative slope [2, 8]: 93.8 percentage in comparison to the control; Plateau of Germination (total percentage of germinated seeds), Sign. [2, 9]: higher; Time taken to reach 50% germination of corn, Sign. [2, 9]: Faster; Uniformity of Germination (slope of the curve), Sign. [2, 9]: more; Plateau of Germination (total percentage of germinated seeds), total % of germinated seeds [2, 9]: 105.39 percentage in comparison to the control; Time taken to reach 50% germination of corn, Relative T50 [2, 9]: 95.22 percentage in comparison to the control; Uniformity of Germination (slope of the curve), Relative slope [2, 9]: 133.81 percentage in comparison to the control; Plateau of Germination (total percentage of germinated seeds), Sign. [2, 10]: ns; Time taken to reach 50% germination of corn, Sign. [2, 10]: Faster; Uniformity of Germination (slope of the curve), Sign. [2, 10]: more; Plateau of Germination (total percentage of germinated seeds), total % of germinated seeds [2, 10]: 100.7 percentage in comparison to the control; Time taken to reach 50% germination of corn, Relative T50 [2, 10]: 92.47 percentage in comparison to the control; Uniformity of Germination (slope of the curve), Relative slope [2, 10]: 176.64 percentage in comparison to the control; changes in germination rate and uniformity (corn) ([2]; isocycloseram 1, 5, 25 and 125 μM, 15° C. or 23° C., especially under the colder conditions and higher concentrations): significant changes in germination rate and uniformity; effect on corn seed germination kinetics ([2]; low temperature (15° C.)): consistent effect
